We go through one substance from patent publication US20240382612A1, “BIOACTIVE CONJUGATE, PREPARATION METHOD THEREFOR AND USE THEREOF” (priority 2017, published 2024).

What all share (type): in vivo, Balb/c-nu mice
Assay [1] deals with human non-small cell lung cancer cell line HCC827. The assay is described as follows: Experimental example 3: HCC827 non-small cell lung cancer subcutaneous xenograft, tumor inhibition. As to conditions: D21 after administration; 10 mg/kg, IV, BIW×3W. The protocol:
(§1) Tumor-bearing mice (6 mice/group) with tumor volume of 100-200 mm^3 were randomly grouped (the number of groups was determined according to sample number). The administration volume was 10 ml/kg, and the administration route was tail intravenous injection. The mice were administered twice a week, and tumor diameter was measured with a vernier caliper, and tumor volume was calculated based on the following calculation formula: V=0.5 a×b^2, wherein a and b stand for the long diameter and short diameter of a tumor respectively. Animal deaths were observed and recorded every day.
(§2) The tumor growth inhibition rate TGI (%) was calculated from the following formula to evaluate tumor inhibitory effect of antibody drug conjugates:
The experimental example 3 was used to evaluate the inhibitory effect of BT001021 and BT001035 on proliferation of tumor-bearing mice models constructed by subcutaneous xenograft human tumor cells of HCC827 non-small cell lung cancer. […] Then changes in tumor volume and animal body weight were measured twice a week to calculate the efficacy (tumor inhibitory effect) of BT001021 and BT001035 on the tumor-bearing mice.
HCC827 cells were cultured in a 1640 culture medium containing 10% fetal bovine serum at 37° C. and 5% CO2. […] After administration, the tumor volume and body weight of the mice were observed and measured regularly. […]

In assay [2] the test system is human gastric cancer cell line NCI-N87. The assay is described as follows: Experimental example 1: NCI-N87 gastric cancer subcutaneous xenograft, tumor inhibition. The settings on record: D21 after administration; IV, BIW×3W; BT001021 and Immu-132 3 mg/kg, toxins T-030 and SN-38 equimolar to ADC. The protocol: as §1, §2
(§3) Specifically, in the experimental examples 1 and 2, tumor-bearing mice models were constructed by subcutaneous xenograft of a human gastric cancer cell line NCI-N87 or a human triple negative breast cancer cell line HCC1806. After the tumor volume was about 100 mm^3, the mice were randomly grouped, and intravenously administered with BT001021 twice a week for a total of 6 times. Changes in tumor volume and animal body weight were measured twice a week to evaluate the efficacy (tumor inhibitory effect) of the antibody drug conjugate on tumor-bearing mice.
NCI-N87 cells were cultured in a 1640 culture medium containing 10% fetal bovine serum at 37° C. and 5% CO2. NCI-N87 cells in the exponential growth stage were collected, resuspended in PBS to a suitable concentration, and inoculated subcutaneously into female Balb/c-nu mice to construct gastric cancer models. When the mean tumor volume was about 90 mm^3, the mice were randomly grouped into a physiological saline group, a BT001021 (3 mg/kg, IV, BIW×3W) group, a positive drug Immu-132 (3 mg/kg, IV, BIW×3W) group, a T030 group and a SN38 group according to the tumor size, followed by tail intravenous injection of corresponding drugs twice a week for a total of 6 times. After administration, the tumor volume and body weight of the mice were observed and measured regularly.

In assay [3] the test system is human breast cancer cell line HCC1806. The assay is described as follows: Experimental example 2: HCC1806 breast cancer subcutaneous xenograft, tumor inhibition. As to conditions: 10 mg/kg, IV, BIW×3W. As to the method:
as §1, §2, §3
HCC1806 cells were cultured in a 1640 culture medium containing 10% fetal bovine serum at 37° C. and 5% CO2. HCC1806 cells in the exponential growth stage were collected, resuspended in PBS in a suitable concentration, and inoculated subcutaneously into female Balb/c-nu to construct breast cancer models. When the mean tumor volume was about 130 mm^3, the mice were randomly grouped into a physiological saline group, a BT001021 (10 mg/kg, IV, BIW×3W) group and a positive drug Immu-132 (10 mg/kg, IV, BIW×3W) group according to the tumor size, followed by tail intravenous injection of corresponding drugs twice a week for a total of […]. After administration, the tumor volume of the mice was observed and measured regularly.

As for “Immu-132: positive drug; ADC prepared according to example 2 of WO2015/012904A2, DAR=5.4”, in assay [1], the “TGI (%)” value is 85.19% and the “Tumor Volume (mm^3) (x ± S)” value was 145.94 ± 19.72 mm^3. Further, in assay [2], the “Tumor Volume (mm^3) (x ± S)” value was found to be 259.04 ± 42.41 mm^3 and the “Tumor growth inhibition rate (%)” value was found to be 46.46%. The “tumor growth of xenograft model mice (result in words)” value in assay [3] was “did not show significant inhibitory activity”. In assay [3] (D17 after administration), the “Tumor Volume (mm^3) (x ± S)” value is given as 2347.05 ± 317.79 mm^3 and the “Tumor growth inhibition rate (%)” value came to 11.62%.
